Type in all cases: cell-based
Experiment [1] addresses T1, human TLR7 (Homo sapiens, UniProt Q9NYK1).
T1 construct: host or cells: HEK-Blue cells (HEK293-derived reporter line)
T1 sequence (Q9NYK1 27-1049): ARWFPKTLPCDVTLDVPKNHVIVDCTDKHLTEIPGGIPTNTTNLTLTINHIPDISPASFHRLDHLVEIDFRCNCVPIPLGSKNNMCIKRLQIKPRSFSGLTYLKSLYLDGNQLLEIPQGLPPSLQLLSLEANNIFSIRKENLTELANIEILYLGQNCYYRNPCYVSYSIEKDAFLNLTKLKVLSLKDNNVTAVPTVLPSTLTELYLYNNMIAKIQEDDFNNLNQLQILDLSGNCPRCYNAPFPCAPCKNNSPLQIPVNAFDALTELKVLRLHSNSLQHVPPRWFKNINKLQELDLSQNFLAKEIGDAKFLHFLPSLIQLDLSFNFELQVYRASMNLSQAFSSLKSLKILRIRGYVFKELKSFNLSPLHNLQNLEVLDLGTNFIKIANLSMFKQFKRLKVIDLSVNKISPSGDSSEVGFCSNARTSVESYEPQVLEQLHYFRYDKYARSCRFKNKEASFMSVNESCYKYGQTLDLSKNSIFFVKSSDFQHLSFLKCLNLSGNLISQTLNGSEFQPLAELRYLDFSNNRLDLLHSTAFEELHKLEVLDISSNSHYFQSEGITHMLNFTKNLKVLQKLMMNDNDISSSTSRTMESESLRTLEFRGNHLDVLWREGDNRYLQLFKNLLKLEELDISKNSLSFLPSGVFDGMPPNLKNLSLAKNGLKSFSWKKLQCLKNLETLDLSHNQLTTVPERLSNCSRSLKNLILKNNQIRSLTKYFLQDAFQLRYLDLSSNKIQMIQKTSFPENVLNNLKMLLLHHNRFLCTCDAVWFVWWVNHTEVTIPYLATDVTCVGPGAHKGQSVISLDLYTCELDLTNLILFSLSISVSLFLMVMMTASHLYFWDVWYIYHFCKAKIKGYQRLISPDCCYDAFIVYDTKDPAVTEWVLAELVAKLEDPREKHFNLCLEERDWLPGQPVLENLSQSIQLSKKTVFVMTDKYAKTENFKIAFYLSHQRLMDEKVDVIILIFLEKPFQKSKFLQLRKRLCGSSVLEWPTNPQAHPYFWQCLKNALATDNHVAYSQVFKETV
The experiment can be described thus: TLR7 inhibition reporter assay (HEK-Blue cells, SEAP reporter, gardiquimod stimulation). Conditions: HEK-Blue cells overexpressing human TLR7, SEAP reporter, gardiquimod 7.5 μM. In a few lines: (§1)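 Agonists (final): TLR7 gardiquimod 7.5 μM; TLR8 R848 15.9 μM; TLR9 ODN2006 5 nM. HEK-Blue reporter cells, 30 min RT compound pre-incubation, 0.05 nM–50 μM dose range, 22 h at 37 °C, colorimetric SEAP detection medium. % inhibition relative to agonist+DMSO and known-inhibitor wells.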

The target in experiment [2] is T2, human TLR8 (Homo sapiens, UniProt Q9NR97).
T2 construct: host or cells: HEK-Blue cells (HEK293-derived reporter line)
T2 sequence (Q9NR97 27-1041): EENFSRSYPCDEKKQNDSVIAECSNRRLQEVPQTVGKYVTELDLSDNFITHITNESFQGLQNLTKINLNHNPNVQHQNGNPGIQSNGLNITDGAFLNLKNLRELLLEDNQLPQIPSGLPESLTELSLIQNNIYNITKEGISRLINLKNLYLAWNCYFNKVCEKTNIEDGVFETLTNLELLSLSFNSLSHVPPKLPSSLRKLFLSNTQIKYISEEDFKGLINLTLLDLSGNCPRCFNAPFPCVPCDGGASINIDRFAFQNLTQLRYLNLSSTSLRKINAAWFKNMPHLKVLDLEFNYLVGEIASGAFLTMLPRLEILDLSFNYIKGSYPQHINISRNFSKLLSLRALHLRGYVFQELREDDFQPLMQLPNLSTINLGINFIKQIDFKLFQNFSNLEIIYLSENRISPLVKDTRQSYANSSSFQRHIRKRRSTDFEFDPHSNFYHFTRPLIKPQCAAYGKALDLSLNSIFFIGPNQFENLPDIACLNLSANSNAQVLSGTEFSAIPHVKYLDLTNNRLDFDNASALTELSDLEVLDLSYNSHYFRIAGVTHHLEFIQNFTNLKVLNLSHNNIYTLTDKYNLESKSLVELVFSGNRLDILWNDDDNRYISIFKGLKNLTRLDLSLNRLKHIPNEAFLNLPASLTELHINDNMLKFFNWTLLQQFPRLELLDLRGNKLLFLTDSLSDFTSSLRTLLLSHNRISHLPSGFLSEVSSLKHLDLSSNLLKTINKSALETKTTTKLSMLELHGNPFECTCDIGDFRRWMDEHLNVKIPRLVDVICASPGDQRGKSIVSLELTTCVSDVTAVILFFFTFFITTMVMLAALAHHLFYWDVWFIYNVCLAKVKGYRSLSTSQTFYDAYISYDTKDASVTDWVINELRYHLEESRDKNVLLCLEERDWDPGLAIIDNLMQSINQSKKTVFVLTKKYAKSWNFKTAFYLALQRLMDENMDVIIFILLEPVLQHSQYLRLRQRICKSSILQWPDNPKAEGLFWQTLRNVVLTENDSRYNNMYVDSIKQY
Put plainly: TLR8 inhibition reporter assay (HEK-Blue cells, SEAP reporter, R848 stimulation). Conditions: HEK-Blue cells overexpressing human TLR8, SEAP reporter, R848 15.9 μM. Summed up:
as §1
For orientation: A reporter such as luciferase makes a cellular process visible.

Experiment [3] deals with T3, human TLR9 (Homo sapiens, UniProt Q9NR96).
T3 construct: host or cells: HEK-Blue cells (HEK293-derived reporter line)
T3 sequence (Q9NR96 26-1032): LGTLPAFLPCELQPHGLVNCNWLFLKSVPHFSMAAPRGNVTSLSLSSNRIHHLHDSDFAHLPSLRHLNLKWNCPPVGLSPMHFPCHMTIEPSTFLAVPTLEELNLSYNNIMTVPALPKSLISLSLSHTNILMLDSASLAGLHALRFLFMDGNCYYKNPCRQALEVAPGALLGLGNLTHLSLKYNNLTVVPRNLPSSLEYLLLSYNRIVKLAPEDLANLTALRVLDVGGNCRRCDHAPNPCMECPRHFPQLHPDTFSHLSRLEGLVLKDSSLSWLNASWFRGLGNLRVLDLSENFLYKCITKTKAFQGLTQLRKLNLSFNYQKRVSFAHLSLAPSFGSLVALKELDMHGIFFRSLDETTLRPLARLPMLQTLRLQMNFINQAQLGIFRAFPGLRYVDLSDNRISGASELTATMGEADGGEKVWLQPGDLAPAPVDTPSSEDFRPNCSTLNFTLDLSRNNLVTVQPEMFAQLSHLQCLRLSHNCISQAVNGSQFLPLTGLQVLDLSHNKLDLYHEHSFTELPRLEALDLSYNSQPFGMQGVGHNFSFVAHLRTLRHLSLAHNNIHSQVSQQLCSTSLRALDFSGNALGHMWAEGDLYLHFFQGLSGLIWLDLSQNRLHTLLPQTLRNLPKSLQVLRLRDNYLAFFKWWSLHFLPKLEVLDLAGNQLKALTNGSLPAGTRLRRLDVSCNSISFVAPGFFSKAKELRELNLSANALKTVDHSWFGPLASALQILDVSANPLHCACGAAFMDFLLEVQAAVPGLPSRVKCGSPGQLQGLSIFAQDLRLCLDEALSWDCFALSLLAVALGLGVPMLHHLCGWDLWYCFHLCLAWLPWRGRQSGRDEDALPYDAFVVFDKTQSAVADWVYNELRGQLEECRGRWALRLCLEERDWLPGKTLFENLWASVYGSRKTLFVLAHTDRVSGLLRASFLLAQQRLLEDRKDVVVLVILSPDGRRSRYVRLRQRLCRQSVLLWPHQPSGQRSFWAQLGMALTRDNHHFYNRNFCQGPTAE
The experiment can be described thus: TLR9 inhibition reporter assay (HEK-Blue cells, SEAP reporter, ODN2006 stimulation). Conditions: HEK-Blue cells overexpressing human TLR9, SEAP reporter, ODN2006 5 nM. In a few lines:
as §1

In patent publication US11739098B2 (BRISTOL-MYERS SQUIBB COMPANY, priority 2017, dated 2023) one finds IC50 data, which are given here for 11 molecules.

A value given as a limit tells only on which side of the number the result lay.

With `CCc1c(-c2ccc3[nH]c(=O)oc3c2)[nH]c2ccc(C3CCNCC3)cc12` [Example 167, 6-(3-ethyl-5-(piperidin-4-yl)-1H-indol-2-yl)benzo[d]oxazol-2(3H)-one], the IC50 in experiment [1], in experiment [2] and in experiment [3] was 100 to 1000 nM in each case.
As for `Cc1cc(-c2[nH]c3ccc(C4CCNCC4)cc3c2C(C)C)cc2nccn12` [Example 161, 7-(3-isopropyl-5-(piperidin-4-yl)-1H-indol-2-yl)-5-methylimidazo[1,2-a]pyridine], the IC50 was 100 to 1000 nM in experiment [1], less than 100 nM in experiment [2] and 100 to 1000 nM in experiment [3].
In the case of `CNC(=O)CN1CCC(c2ccc3[nH]c(-c4cc(F)c5nccn5c4)c(CC(F)F)c3c2)CC1` [Example 411, 2-(4-(3-(2,2-difluoroethyl)-2-(8-fluoroimidazo[1,2-a]pyridin-6-yl)-1H-indol-5-yl)piperidin-1-yl)-N-methylacetamide], the IC50 in experiment [1] was less than 100 nM; in experiment [2], 100 to 1000 nM; in experiment [3], 1000 to 50000 nM.
Regarding `Cc1c(-c2[nH]c3ccc(C4CCN(C(=O)CCN5CCOCC5)CC4)cc3c2C(C)C)cn2nnnc2c1C` [Example 619, 1-(4-(2-(7,8-dimethyltetrazolo[1,5-a]pyridin-6-yl)-3-isopropyl-1H-indol-5-yl)piperidin-1-yl)-3-morpholinopropan-1-one], the IC50 in experiment [1] was less than 100 nM; in experiment [2], less than 100 nM; in experiment [3], 1000 to 50000 nM.
Take `Cc1cc(-c2[nH]c3ccc(C4CCN(CC#N)CC4)cc3c2C(C)C)cn2ccnc12` [Example 951, 2-(4-(3-isopropyl-2-(8-methylimidazo[1,2-a]pyridin-6-yl)-1H-indol-5-yl)piperidin-1-yl)acetonitrile]: the IC50 was less than 100 nM in experiment [1], less than 100 nM in experiment [2] and 100 to 1000 nM in experiment [3].
For `CCCN1CCC(c2ccc3[nH]c(-c4ccc5c(c4)COC5=O)c(C(C)C)c3c2)CC1` [Example 953, 5-(3-isopropyl-5-(1-propylpiperidin-4-yl)-1H-indol-2-yl)isobenzofuran-1(3H)-one], the results for the IC50 in experiment [1], in experiment [2] and in experiment [3] were less than 100 nM, less than 100 nM and 1000 to 50000 nM, respectively.
For the molecule `COc1cc(-c2[nH]c3ccc(C4CCNCC4)cc3c2C(C)C)cc2ncnn12` [Example 158, 7-(3-isopropyl-5-(piperidin-4-yl)-1H-indol-2-yl)-5-methoxy-[1,2,4]triazolo[1,5-a]pyridine], the IC50 in experiment [1] was less than 100 nM; in experiment [2] it was less than 100 nM; in experiment [3], 1000 to 50000 nM.
Regarding `CCc1c(-c2ccnc3[nH]ncc23)[nH]c2ccc(C3CCN(C(=O)CN)CC3)cc12` [Example 461, 2-amino-1-(4-(3-ethyl-2-(1H-pyrazolo[3,4-b]pyridin-4-yl)-1H-indol-5-yl)piperidin-1-yl)ethan-1-one], the IC50 was 100 to 1000 nM in experiment [1], less than 100 nM in experiment [2] and 1000 to 50000 nM in experiment [3].
For `CCc1c(-c2cnc3cc(C)cnn23)[nH]c2ccc(C3CCNCC3)cc12` [Example 108, 3-(3-ethyl-5-(piperidin-4-yl)-1H-indol-2-yl)-7-methylimidazo[1,2-b]pyridazine], the IC50 in experiment [1] is more than 50000 nM; in experiment [2] it was 1000 to 50000 nM; in experiment [3], 1000 to 50000 nM.
Regarding `Cc1cc(-c2[nH]c3ccc(C4CCN(C5COC5)CC4)cc3c2C(C)C)cn2nnnc12` [Example 741, 6-(3-isopropyl-5-(1-(oxetan-3-yl)piperidin-4-yl)-1H-indol-2-yl)-8-methyltetrazolo[1,5-a]pyridine], the IC50 in experiment [1] was less than 100 nM; in experiment [2], less than 100 nM; in experiment [3], 1000 to 50000 nM.
With `Cc1c(-c2[nH]c3ccc(C4CCNCC4)cc3c2C(C)C)cn2ccnc2c1C` [Example 271, 6-(3-isopropyl-5-(piperidin-4-yl)-1H-indol-2-yl)-7,8-dimethylimidazo[1,2-a]pyridine], the IC50 was less than 100 nM in experiment [1], less than 100 nM in experiment [2] and 100 to 1000 nM in experiment [3].

As a reminder, the IC50 is the concentration that inhibits the measured activity by half.
